From US20030194738A1, “Antisense oligonucleotide compositions and methods for the modulation of activating protein 1” (priority 1997, published 2003)
Values joined by “and” are separate entries in the source; they are usually repeats but may differ in a detail not shown here. Equal values may be shown once. “Also recorded” adds a separate entry of the source. Strand notation (5' to 3'): a small letter for the sugar, then the base; units joined by * are phosphorothioate-linked, units joined directly phosphodiester-linked; [ ] holds rarer units or linkages, { } end groups; capitals alone tell only the bases. d = 2'-deoxy (DNA)

Key:
c-fos mRNA [1] = assay: c-fos mRNA expression in TPA-induced A549 cells, Northern blotting; format: cell-based, human; details: for c-fos (mRNA level, specificity experiment): Table 5, TPA - no oligo = 100, basal = 5
Experimental: (§1) In order to evaluate the activity of potential c-fos and c-jun modulating oligonucleotides, A549 cells were grown in T-75 flasks until 80-90% confluent. (Cell line A549 is available from, inter alia, the American Type Culture Collection, Rockville, Md., as ATCC No. CCL-185.) At this time, the cells were washed twice with 10 mL of media (DMEM), followed by the addition of 5 mL of DMEM containing 20 μg/mL of LIPOFECTIN™ (i.e., DOTMA/DOPE (N-[1-(2,3-dioleyloxy)propyl]-N,N,N-[…] chloride/dioleoylphosphatidyl ethanolamine)). The oligonucleotides were added from a 10 μM stock solution to a final concentration of 400 nM, and the two solutions were mixed by swirling the flasks. After 4 hours at 37° C., the medium was replaced with DMEM containing 10% serum. At this point, 1 μM 12-O-tetradecanoylphorbol 13-acetate (TPA) was added to induce expression of c-fos and c-jun. Cells were extracted in guanidinium one hour later, and the c-fos and c-jun mRNA expression was determined by Northern blotting. Probes for human c-jun and c-fos were PCR products prepared using primers based on the published sequences thereof (respectively, Hattori et al., Proc. Natl. Acad. Sci. U.S.A., 1988, 85:9148, and Van Straaten et al., Proc. Natl. Acad. Sci. U.S.A., 1983, 80:3183).
Finally, it can also be seen from Table 5 that neither active oligonucleotide has any detectable effect on mRNA levels of the other active oligonucleotide's target.
Once oligonucleotides that modulate c-Fos or c-Jun are identified, derivative or modified oligonucleotides having the same sequence thereas are prepared. In order to evaluate the effect of chemical modifications to oligonucleotides to c-fos and c-jun, the modified oligonucleotides described in Tables 8 and 9 were prepared. The effect of the c-fos-targeted oligonucleotides on c-fos RNA levels were evaluated as described in Examples 2-3. […] Other modified oligonucleotides of the invention are evaluated in like fashion. In order to evaluate the effect of PNA antisense analogs, the PNA analogs of the invention are introduced into appropriate cell lines by microinjection according to the method of Hanvey et al. (Science, 1992, 258:1481). Intracellular delivery of PNA analogs is confirmed by the use of a fluorescently tagged PNA antisense analog conjugate such as, e.g., ISIS 14240.

c-jun mRNA = c-jun mRNA expression in TPA-induced A549 cells, Northern blotting; format: cell-based, human; details: for c-jun (mRNA level, specificity experiment): Table 5, TPA - no oligo = 100, basal = 23; for c-jun (mRNA level, specificity experiment) / c-jun mRNA LEVELS (% CONTROL) / effect on c-jun mRNA levels during TPA induction (in words): A549 cells; for c-jun mRNA LEVELS (% CONTROL): TPA induction, 1 hour
Experimental: as §1, with “The oligonucleotides were added from a 10 μM stock solution to a final concentration of 400 nM, and the two solutions were mixed by swirling the flasks.” left out

c-Fos protein = c-Fos protein levels in TPA-induced A549 cells, immunoblot; format: cell-based, human; details: TPA (1 uM) for three hours; for c-Fos (protein level): Table 7, TPA - no oligo = 100, basal = 21
Experimental: The ability of the c-fos active oligonucleotide ISIS 10639 to reduce expression of the c-Fos protein was examined as follows. A549 cells were treated with oligonucleotides as in Examples 2-3, except that induction of c-Fos was effected by treatment of cells with TPA (1 uM) for three hours. At this time, whole cell protein was extracted in SDS (sodium dodecyl sulfate) buffer. Samples of extracts were electrophoresed, transferred to nitrocellulose filters which were immunoblotted using a c-Fos-specific antibody (Santa Cruz AB, Santa Cruz, Calif.).

MMP-9 = MMP-9 expression in TPA-induced normal human epidermal keratinocytes; format: cell-based; details: for MMP-9 (expression): Table 17, NHEK cells harvested 24 hours after TPA treatment for 4 hours, TPA - no oligo = 100, basal = 4
Source text: The matrix metalloproteinases (MMPs) are a family of enzymes which have the ability to degrade components of the extracellular matrix (Birkedal-Hansen, Current Op. Biol., 1995, 7, 728). […] In particular, one member of this family, matrix metalloproteinase-9 (MMP-9), is often found to be expressed only in tumors and other diseased tissues (Himeistein et al., Invasion & Metastasis, 1994, 14, 246). Several studies have shown that regulation of the MMP-9 gene may be controlled by the AP-1 transcription factor (Kerr et al., Science, 1988, 242, 1242; Kerr et al., Cell, 1990, 61, 267; Gum et al., J. Biol. Chem., 1996, 271, 10672; Hua et al., Cancer Res., 1996, 56, 5279). In order to determine whether MMP-9 expression can be influenced by AP-1 modulation, the following experiments were conducted on normal human epidermal keratinocytes (NHEKs). Although NHEKs normally express no detectable MMP-9, MMP-9 can be induced by a number of stimuli, including TPA. ISIS 10582, an oligonucleotide targeted to c-jun, was evaluated for its ability to modulate MMP-9 expression according to the protocols described in Examples 2-3 with the following exceptions: (1) NHEK cells were used instead of A549 cells, (2) the probe used, a PCR product prepared using the published sequence of the MMP-9 gene (Huhtala et al., J. Biol. Chem., 1991, 266:16485; Sato et al., Oncogene, 1993, 8:395), is specific for MMP-9 rather than c-jun, and (3) the cells were harvested 24 hours after TPA treatment for 4 hours.

c-Jun = assay: Induction of c-Jun by TNF-a, IL-1b or TGF-b in A549 cells; format: cell-based, human; details: for c-Jun induction by IL-1b: inducer IL-1b 10 ng/ml, No Oligo = 100, basal = 9; for c-Jun induction by TGF-b: inducer TGF-b 10 ng/ml, No Oligo = 100, basal = 2; for c-Jun induction by TNF-a: inducer TNF-a 10 ng/ml, No Oligo = 100, basal = 5
Experimental: Inducing agents other than TPA function to raise AP-1 levels in vivo. In order to assess the ability of oligonucleotides targeted to AP-1 to antagonize the action of three such inducers, A549 cells were treated and evaluated as in Examples 2 et seq. with the exception that TNF-a, IL-1b or TGE-b (each at 10 ng/mi and all from R&D Systems, Minneapolis, Minn.) were used in place of TPA as inducers.

c-fos mRNA [2] = assay: c-fos mRNA expression in TPA-induced A549 cells, Northern blotting; format: cell-based, human; details: TPA induction, 1 hour
A549 tumors = assay: Growth of A549 tumor fragments implanted subcutaneously in nude mice; format: in vivo; details: 25 mg/kg daily i.v. for three weeks; for Mean Tumor Weight: nude mice
Experimental: In order to evaluate the in vivo activity of c-fos oligonucleotides, 25 mg of tumor fragments of A549 tumors were implanted subcutaneously in nude mice (n=6). ISIS 10639 was administered daily, i.v., for three weeks. The oligonucleotide dosage was 25 mg/kg. […] By day 34, saline-treated tumors were 0.56±0.12 g by weight, while tumors treated with ISIS 10639 were 0.31±0.1 g by weight.

[3] = 400 nM oligonucleotide with LIPOFECTIN, control is TPA induction, at 1 hour, in A549 cells
[4] = 400 nM oligonucleotide, TPA-induced A549 cells

| Substance | effect on c-fos mRNA levels during TPA induction (in words) (c-fos mRNA [1]; A549 cells) | c-fos (mRNA level, specificity experiment) (c-fos mRNA [1]; A549 cells) | c-jun (mRNA level, specificity experiment) (c-jun mRNA) | c-Fos (protein level) (c-Fos protein) | MMP-9 (expression) (MMP-9) | effect on c-jun mRNA levels during TPA induction (in words) (c-jun mRNA) | other results |
| --- | --- | --- | --- | --- | --- | --- | --- |
| GCT-GTG-GGC-CTC-AAG-GAC-TT (GCTGTGGGCCTCAAGGACTT; antisense; DNA, all phosphorothioate, methylation of C not given here) [ISIS 11184] | no detectable effect | 84 | 91 | 97 | – | – | – |
| TCA-GCC-CCC-GAC-GGT-CTC-TC (dT*dC*dA*dG*dC*dC*dC*dC*dC*dG*dA*dC*dG*dG*dT*dC*dT*dC*dT*dC; antisense) [ISIS 10582] | no detectable effect | 91 | 4 | – | 6 | dose-dependent; also recorded: potent and specific inhibition | expression of MMP-9 after induction with TPA (in words) (MMP-9; NHEK cells): completely inhibit; c-jun mRNA LEVELS (% CONTROL) (c-jun mRNA; 50 nM oligonucleotide): 72 % CONTROL; c-jun mRNA LEVELS (% CONTROL) (c-jun mRNA; 100 nM oligonucleotide): 45.5 % CONTROL; c-jun mRNA LEVELS (% CONTROL) (c-jun mRNA; 200 nM oligonucleotide): 29.5 % CONTROL; c-jun mRNA % CONTROL (c-jun mRNA; [3]): 17 % CONTROL; inhibition of c-jun mRNA expression (c-jun mRNA; [4]): 83%; c-jun mRNA LEVELS (% CONTROL) (c-jun mRNA; 400 nM oligonucleotide): 16 % CONTROL; stimulation / induction of c-Jun by TNF-a or IL-1b (in words) (c-Jun): effectively reduces; c-Jun induction by IL-1b (c-Jun): 15; c-Jun induction by TGF-b (c-Jun): 95; c-Jun induction by TNF-a (c-Jun): 20 |
| ACG-TCC-GAT-TCC-GAG-CGC-AA (ACGTCCGATTCCGAGCGCAA; antisense; DNA, all phosphorothioate, methylation of C not given here) [ISIS 11186] | no detectable effect | 98 | 99 | 99 | – | – | – |
| AAG-TCC-TTG-AGG-CCC-ACA-GC (AAGTCCTTGAGGCCCACAGC; antisense; all phosphorothioate, sugars by position and methylation of C not given here) [ISIS 10639] | dose-dependent; also recorded: potent and specific inhibition | 9 | 97 | 19 | – | no detectable effect | c-fos mRNA LEVELS (% CONTROL) (c-fos mRNA [2]; 50 nM oligonucleotide): 64 % CONTROL; c-fos mRNA LEVELS (% CONTROL) (c-fos mRNA [2]; 100 nM oligonucleotide): 46 % CONTROL; c-fos mRNA LEVELS (% CONTROL) (c-fos mRNA [2]; 200 nM oligonucleotide): 20.5 % CONTROL; c-fos mRNA % CONTROL (c-fos mRNA [1]; [3]): 9 % CONTROL; inhibition of c-fos mRNA expression (c-fos mRNA [1]; [4]): 91%; c-fos mRNA LEVELS (% CONTROL) (c-fos mRNA [1]; 400 nM oligonucleotide, TPA induction, 1 hour, A549 cells): 9 % CONTROL; c-fos (expression, modified oligonucleotides) (c-fos mRNA [1]; Table 10, TPA - no oligo = 100, basal = 3, A549 cells): 9; tumor growth rate (in words) (A549 tumors; versus saline): substantial reduction; Mean Tumor Weight (A549 tumors; Day 17): 0.105 g; Mean Tumor Weight (A549 tumors; Day 20): 0.138 g; Mean Tumor Weight (A549 tumors; Day 27): 0.225 g; Mean Tumor Weight (A549 tumors; Day 34, 25 mg/kg): 0.31 ± 0.1 g and 0.310 g; c-Fos protein level (in words) (c-Fos protein; A549 cells): basal levels |
| GAG-AGA-CCG-TCG-GGC-GCT-GA (GAGAGACCGTCGGGGGCTGA; listed as DNA, chemistry not given here) [ISIS 11562] | – | 89 | – | – | 99 | – | – |
| CAC-CTC-CAC-GCG-CTT-CTG-GC (dC*dA*dC*dC*dT*dC*dC*dA*dC*dG*dC*dG*dC*dT*dT*dC*dT*dG*dG*dC; antisense) [ISIS 11563] | – | 99 | – | – | 95 | – | stimulation / induction of c-Jun by TNF-a or IL-1b (in words) (c-Jun): did not reverse; c-Jun induction by IL-1b (c-Jun): 94; c-Jun induction by TGF-b (c-Jun): 99; c-Jun induction by TNF-a (c-Jun): 98 |
| TCG-GCA-CCT-GAA-GGA-CTT-TC (dT*dC*dG*dG*dC*dA*dC*dC*dT*dG*dA*dA*dG*dG*dA*dC*dT*dT*dT*dC; antisense) [ISIS 11564] | – | 99 | 71 | – | 89 | no detectable effect | – |
| ATG-TGC-TAG-ATG-CGC-AAA-GT (ATGTGCTAGATGCGCAAAGT; antisense; DNA, all phosphorothioate, methylation of C not given here) [ISIS 11185] | no detectable effect | 93 | 98 | 91 | – | – | – |
